Experimental data: patent publication US20220016243A1, “METHODS FOR TREATMENT OF CANCER WITH AN ANTI-TIGIT ANTAGONIST ANTIBODY” (Genentech, Inc., priority 2020, published 2022)
Like-named read-outs stand apart in the source and are kept apart here.

Legend:
[1] = human, in vivo; cited from earlier work
[2] = Internal safety review of lung cancer clinical trials (paclitaxel); assay type: in vivo, human; conditions: patients from Asian countries compared with those from non-Asian countries
Protocol: Patients of Asian race/ethnicity have a lower starting dose of paclitaxel at 175 mg/m2 IV over 3 hours. […] As used in this study, Asian race/ethnicity refers to a panethnic/racial group that includes diverse populations who either live or have ancestral origins in East Asia, Southeast Asia, or South Asia. The applicability of such term in a particular patient is at the discretion of the treating investigator and should be based on the patient's clinical characteristics and country of origin.

[3] = system: patients with mUC who had progressed on platinum-based therapy and checkpoint inhibitor therapy; conditions: cited from earlier work
[4] = system: patients with advanced or metastatic HCC; conditions: cited from earlier work
[5] = system: chemotherapy-naive patients with locally advanced unresectable or metastatic PD-L1-selected NSCLC; conditions: cutoff 30 Jun. 2019
[6] = cited from earlier work
[7] = system: patients with metastatic bladder; conditions: 8 of 17 patients at the recommended Phase II dose; prior CPI treatment; 95% CI: 23, 72.2; cited from earlier work

Molecule: Nc1ccn([C@@H]2O[C@H](CO)[C@@H](O)C2(F)F)c(=O)n1 [gemcitabine]
- most common adverse events [1]: nausea/vomiting, anemia, hepatic transaminitis, neutropenia, increased ALP, proteinuria, fever, hematuria, rash, thrombocytopenia, dyspnea, and peripheral edema

Molecule: CC(=O)O[C@H]1C(=O)[C@@]2(C)[C@H]([C@H](OC(=O)c3ccccc3)[C@]3(O)C[C@H](OC(=O)[C@H](O)[C@@H](NC(=O)c4ccccc4)c4ccccc4)C(C)=C1C3(C)C)[C@]1(OC(C)=O)CO[C@@H]1C[C@@H]2O [paclitaxel]
- incidence of hematologic toxicities [2]: higher overall incidence of hematologic toxicities

Molecule: sacituzumab govitecan
- ORR ([3]; 35 patients): 29%
- ORR ([3]; patients with liver metastases): 25.0%

Molecule: CNC(=O)c1cc(Oc2ccc(NC(=O)Nc3ccc(Cl)c(C(F)(F)F)c3)cc2)ccn1 [sorafenib]
- median PFS ([4]; Independent Review Facility-assessed per RECIST v1.1): 4.27 months
- median OS ([4]; in vivo): 13.24 months

Molecule: placebo and atezolizumab: control arm of Study GO40290: placebo in combination with atezolizumab
- all-grade adverse events ([5]; 135 safety-evaluable patients, tiragolumab 600 mg every 3 weeks): 95.6%
- ORR ([5]; ITT population): 16.2%
- investigator-assessed PFS ([5]; ITT population): 3.6 months
- AEs leading to treatment discontinuation [5]: 10.3%
- Grade ≥3 AEs [5]: 44.1%
- adverse events of special interest [5]: 32.4%
- serious AEs [5]: 35.3%

Molecule: [NH2][Pt]1([NH2])[O]C(=O)C2(CCC2)C(=O)[O]1 [carboplatin, platinum, diammine[I,I-cyclobutanedicarboxylato(2-)-0,0′]-, (SP-4-2)]
- pH of a 1% solution ([6]; 1% solution): 5 to 7
- solubility in ethanol, acetone, and dimethylacetamide ([6]; ethanol, acetone, dimethylacetamide): virtually insoluble
- solubility in water ([6]; water): approximately 14 mg/mL

Molecule: enfortumab vedotin
- patients who obtained a PR [7]: 47%
